In ChEMBL document CHEMBL1124350, “Retinobenzoic acids. 4. Conformation of aromatic amides with retinoidal activity. Importance of trans-amide structure for the activity” (1989):

Key:
HL-60 [1] = experiment: Relative activity expressed as mean of ratio of effective dose of retinoic acid against HL-60 cell versus the compound; format: functional, Homo sapiens
HL-60 [2] = experiment: Compound was tested for differentiation-inducing activity against human promyelocytic leukemia cell line HL-60; format: functional; details: read-out: ED50 (the source's name)

| Compound | EC50 (HL-60 [2]) [nM] | Relative activity (HL-60 [1]) |
| --- | --- | --- |
| CC1(C)CCC(C)(C)c2cc3c(cc21)CN(c1ccc(C(=O)O)cc1)C3=O | 510 | 0.33 |
| CC1(C)CCC(C)(C)c2cc3c(cc21)CCN3C(=O)c1ccc(C(=O)O)cc1 | 150 | 1.1 |
| CN(C(=O)c1ccc(C(=O)O)cc1)c1ccc2c(c1)C(C)(C)CCC2(C)C | > 1000 | <0.01 |
| CC1(C)CCC(C)(C)c2cc(NC(=O)c3ccc(C(=O)O)cc3)ccc21 [TAMIBAROTENE] | 0.79 | 350 |
| CC1=C(/C=C/C(C)=C/C=C/C(C)=C/C(=O)O)C(C)(C)CCC1 [TRETINOIN] | 2.4 | 100 |

Continued, in another order:

| EC50 (HL-60 [2]) [nM] | Compound | Relative activity (HL-60 [1]) |
| --- | --- | --- |
| 65 | CC1(C)CCC(C)(C)c2cc3c(ccn3C(=O)c3ccc(C(=O)O)cc3)cc21 | 2.6 |
| 0.34 | CC1(C)CCC(C)(C)c2cc(C(=O)Nc3ccc(C(=O)O)cc3)ccc21 | 720 |
| > 1000 | CN(C(=O)c1ccc2c(c1)C(C)(C)CCC2(C)C)c1ccc(C(=O)O)cc1 | < 0.01 |
